How the values were obtained:
MDM2 = target: T1, MDM2 (Homo sapiens, UniProt Q00987); assay: Inhibition test of MDM2-P53 (GST-MDM2, Biotin-P53, Anti-GST-Tb, SA-XL665); type: binding; conditions: for inhibitory effect on MDM2 compared with positive control compound HDM201: labels are Example numbers, the compounds with S-configuration are meant
T1 construct: made in house
Outline: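 HTRF-type assay using 4 nM GST-MDM2 (final), Biotin-P53, SA-XL665 and anti-GST-Tb in PBS with 0.1% BSA, 5 mM DTT and 1 mM AEBSF. Compounds in 5-fold serial dilutions over twelve points; incubation 90 min at 25° C with shaking before plate-reader read-out.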

[1] = tested on: human osteosarcoma cell line SJSA-1; assay: Inhibition of proliferation of human osteosarcoma cell line SJSA-1 (DAPI staining, In Cell Analyzer); conditions: for IC50: Homo sapiens, SJSA-1, 72 h, read-out: IC50 (nM), inhibitory activity on proliferation of human osteosarcoma cell line SJSA-1, SJSA-1, incubated 72 h; for inhibitory effect on human osteosarcoma cell line SJSA-1 compared with positive control compound HDM201: labels are Example numbers, the compounds with S-configuration are meant
Description: 2.2 Experiment Preparation:
2.2.1 Preparation of a culture medium for human osteosarcoma cell line SJSA-1: RPMI1640+10% FBS+1% penicillin/streptomycin
2.2.2 Preparation of a test compound solution:
a. the test compound solution with a certain concentration was taken, and diluted with the culture medium to obtain a compound solution with a final concentration of 20 μM;
b. 200 μL of a culture medium containing 0.2% DMSO (dimethyl sulfoxide) was added into H2-H10 of a 96-well plate; 300 μl of the above solution was added into H1; and
c. 100 μL was taken out from well H1, added into H2, and mixed well; then 100 μl of the resultant solution was taken and added into H3, and dilution was carried out in sequence until H9 to obtain the 3-fold serial dilution of the test compound.
2.3 Experimental Process:
2.3.1 SJSA-1 cells were inoculated into a 96-well cell plate with black transparent bottom at 4000 cells/100 μl/well, and cultured overnight at 37° C.;
2.3.3 Fixation: the cell plate was taken out, the culture medium was removed, and 50 μL of 4% paraformaldehyde solution was added to each well to fix for 10 min;
2.3.4 50 μl of 0.1 M glycine was added to neutralize for 10 min;
2.3.5 Washing was performed with 1×PBS (phosphate buffer solution pH7.2) twice;
2.3.6 Permeabilization: 50 μL of 0.2% TritonX-100 (Triton) was added per well, and permeabilization was carried out at room temperature for 10 min;
2.3.7 Washing was performed with 1×PBS (phosphate buffer solution pH7.2) twice;
2.3.9 Washing was performed with 1×PBS (phosphate buffer solution pH7.2) for three times; and
2.3.10 Scanning and analysis were performed by In cell analyzer.
The inhibition rate of each compound at each concentration point was calculated according to the following formula, and curve fitting was performed by GraphPad Prism 6.0 software to obtain the IC50 value.

T1 sequence (Q00987 whole entry): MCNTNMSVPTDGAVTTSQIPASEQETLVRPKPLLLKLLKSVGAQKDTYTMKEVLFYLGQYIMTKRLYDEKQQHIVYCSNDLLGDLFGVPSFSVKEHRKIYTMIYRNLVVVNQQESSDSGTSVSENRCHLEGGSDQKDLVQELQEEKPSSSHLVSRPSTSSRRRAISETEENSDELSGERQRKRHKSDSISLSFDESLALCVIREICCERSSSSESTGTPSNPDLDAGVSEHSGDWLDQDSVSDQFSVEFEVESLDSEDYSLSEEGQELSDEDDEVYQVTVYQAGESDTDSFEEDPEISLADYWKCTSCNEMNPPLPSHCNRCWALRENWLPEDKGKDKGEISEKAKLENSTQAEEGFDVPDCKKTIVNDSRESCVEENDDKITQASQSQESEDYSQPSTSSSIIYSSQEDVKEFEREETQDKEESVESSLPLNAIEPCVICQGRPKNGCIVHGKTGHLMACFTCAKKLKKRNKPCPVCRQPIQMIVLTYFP

SMILES	IC50 (MDM2) [nM]	IC50 [1] [nM]	inhibitory effect on MDM2 compared with positive control compound HDM201 (MDM2)	inhibitory effect on human osteosarcoma cell line SJSA-1 compared with positive control compound HDM201 [1]
COc1cc(OC2CC2)ncc1-c1nc2c(n1C(C)C)[C@@]1(C(=O)Nc3cc(Cl)ccc31)N(c1cc(Cl)ccc1C)C2=O [Example S-110, (S)-6-chloro-5′-(5-chloro-2-methylphenyl)-2′-(6-cyclopropoxy-4-methoxypyridin-3-yl)-3′-isopropyl-3′H-spiro[dihydroindole-3,4′-pyrrolo[3,4-d]imidazole]-2,6′(5′H)-dione]	1.6	78	–	–
COc1cc(OC(F)(F)F)ccc1-c1nc2c(n1C(C)C)[C@]1(C(=O)Nc3cc(Cl)ccc31)N(c1cc(Cl)ccc1C)C2=O [Example R-87, (R)-6-chloro-5′-(5-chloro-2-methylphenyl)-3′-isopropyl-2′-(2-methoxy-4-(trifluoromethoxy)phenyl)-3′H-spiro[dihydroindole-3,4′-pyrrolo[3,4-d]imidazole]-2,6′(5′H)-dione]	473	7350	–	–
COc1nc(N(C)C)ccc1-c1nc2c(n1C(C)C)[C@]1(C(=O)Nc3cc(Cl)ccc31)N(c1cc(Cl)ccc1C)C2=O [Example R-157, (R)-6-chloro-5′-(5-chloro-2-methylphenyl)-2′-(6-(dimethylamino)-2-methoxypyridin-3-yl)-3′-isopropyl-3′H-spiro[dihydroindole-3,4′-pyrrolo[3,4-d]imidazole]-2,6′(5′H)-dione]	370	1800	–	–
COc1ccccc1-c1nc2c(n1C(C)C)[C@@]1(C(=O)Nc3cc(Cl)ccc31)N(c1cc(Cl)c(=O)n(C)c1)C2=O [Example S-53, (S)-6-chloro-5′-(5-chloro-1-methyl-6-oxo-1,6-dihydropyridin-3-yl)-3′-isopropyl-2′-(2-methoxyphenyl)-3′H-spiro[dihydroindole-3,4′-pyrrolo[3,4-d]imidazole]-2,6′(5′H)-dione]	0.84	213	–	–
COc1ccc(C(=O)N(C)C)cc1-c1nc2c(n1C(C)C)[C@]1(C(=O)Nc3cc(Cl)ccc31)N(c1cc(Cl)ccc1C)C2=O [Example R-22, (R)-3-(6-chloro-5′-(5-chloro-2-methylphenyl)-3′-isopropyl-2,6′-dioxo-5′,6′-dihydro-3′H-spiro[dihydroindole-3,4′-pyrrolo[3,4-d]imidazole]-2′-yl)-4-methoxy-N,N-dimethylbenzamide]	627	6950	–	–
CCc1cc(-c2nc3c(n2C(C)C)C2(C(=O)Nc4cc(Cl)ccc42)N(c2cc(Cl)ccc2C)C3=O)c(OC)cc1N(C)C (centres unmarked) [Example 125, 6-chloro-5′-(5-chloro-2-methylphenyl)-2′-(4-(dimethylamino)-5-ethyl-2-methoxyphenyl)-3′-isopropyl-3′H-spiro[dihydroindole-3,4′-pyrrolo[3,4-d]imidazole]-2,6′(5′H)-dione]	20.8	60.3	–	–
COc1nc(C(C)C)ccc1-c1nc2c(n1C(C)C)[C@@]1(C(=O)Nc3cc(Cl)ccc31)N(c1cc(Cl)ccc1C)C2=O [Example S-149, (S)-6-chloro-5′-(5-chloro-2-methylphenyl)-3′-isopropyl-2′-(6-isopropyl-2-methoxypyridin-3-yl)-3′H-spiro[dihydroindole-3,4′-pyrrolo[3,4-d]imidazole]-2,6′(5′H)-dione]	18.5	153	–	–
CCOc1cc(OC)c(-c2nc3c(n2C(C)C)C2(C(=O)Nc4cc(Cl)ccc42)N(c2cc(Cl)ccc2C)C3=O)cn1 (centres unmarked) [Example 72, 6-chloro-5′-(5-chloro-2-methylphenyl)-2′-(6-ethoxy-4-methoxypyridin-3-yl)-3′-isopropyl-3′H-spiro[dihydroindole-3,4′-pyrrolo[3,4-d]imidazole]-2,6′(5′H)-dione]	–	–	better	better
COc1ccc(-c2nc3c(n2C(C)C)[C@@]2(C(=O)Nc4cc(Cl)ccc42)N(c2cc(Cl)ccc2F)C3=O)c(OC)c1 [Example S-80, (S)-6-chloro-5′-(5-chloro-2-fluorophenyl)-2′-(2,4-dimethoxyphenyl)-3′-isopropyl-3′H-spiro[dihydroindole-3,4′-pyrrolo[3,4-d]imidazole]-2,6′(5′H)-dione]	2.56	16.9	–	–
COc1cc(N)ccc1-c1nc2c(n1C(C)C)[C@@]1(C(=O)Nc3cc(Cl)ccc31)N(c1cc(F)cc(Cl)c1)C2=O [Example S-67, (S)-2′-(4-amino-2-methoxyphenyl)-6-chloro-5′-(3-chloro-5-fluorophenyl)-3′-isopropyl-3′H-spiro[dihydroindole-3,4′-pyrrolo[3,4-d]imidazole]-2,6′(5′H)-dione]	1.22	20.8	–	–
COc1cc(C(N)=O)ccc1-c1nc2c(n1C(C)C)[C@@]1(C(=O)Nc3cc(Cl)ccc31)N(c1cc(Cl)ccc1C)C2=O [Example S-77, (S)-4-(6-chloro-5′-(5-chloro-2-methylphenyl)-3′-isopropyl-2,6′-dioxo-5′,6′-dihydro-3′H-spiro[dihydroindole-3,4′-pyrrolo[3,4-d]imidazole]-2′-yl)-3-methoxybenzamide]	1.86	535	–	–
CCN(C)c1ccc(-c2nc3c(n2C(C)C)[C@@]2(C(=O)Nc4cc(Cl)ccc42)N(c2cc(Cl)ccc2C)C3=O)c(OC)c1 [Example S-99, (S)-6-chloro-5′-(5-chloro-2-methylphenyl)-2′-(4-(ethyl(methyl)amino)-2-methoxyphenyl)-3′-isopropyl-3′H-spiro[dihydroindole-3,4′-pyrrolo[3,4-d]imidazole]-2,6′(5′H)-dione]	2.56	34.2	–	–
COc1cccc(F)c1-c1nc2c(n1C(C)C)[C@@]1(C(=O)Nc3cc(Cl)ccc31)N(c1cc(Cl)ccc1C)C2=O [Example S-57, (S)-6-chloro-5′-(5-chloro-2-methylphenyl)-2′-(2-fluoro-6-methoxyphenyl)-3′-isopropyl-3′H-spiro[dihydroindole-3,4′-pyrrolo[3,4-d]imidazole]-2,6′(5′H)-dione]	3.04	11.8	–	–
COc1cc(N(C)C)ncc1-c1nc2c(n1C(C)C)[C@@]1(C(=O)Nc3cc(Cl)ccc31)N(c1cccc(Cl)c1)C2=O [Example S-113, (S)-6-chloro-5′-(3-chlorophenyl)-2′-(6-(dimethylamino)-4-methoxypyridin-3-yl)-3′-isopropyl-3′H-spiro[dihydroindole-3,4′-pyrrolo[3,4-d]imidazole]-2,6′(5′H)-dione]	1.25	26.7	–	–
COc1cc(OCCF)ncc1-c1nc2c(n1C(C)C)[C@@]1(C(=O)Nc3cc(Cl)ccc31)N(c1cc(Cl)ccc1C)C2=O [Example S-163, (S)-6-chloro-5′-(5-chloro-2-methylphenyl)-2′-(6-(2-fluoroethoxy)-4-methoxypyridin-3-yl)-3′-isopropyl-3′H-spiro[dihydroindole-3,4′-pyrrolo[3,4-d]imidazole]-2,6′(5′H)-dione]	1.36	126	–	–
COc1cccc(OC)c1-c1nc2c(n1C(C)C)[C@@]1(C(=O)Nc3cc(Cl)ccc31)N(c1cc(Cl)ccc1C)C2=O [Example S-79, (S)-6-chloro-5′-(5-chloro-2-methylphenyl)-2′-(2,6-dimethoxyphenyl)-3′-isopropyl-3′H-spiro[dihydroindole-3,4′-pyrrolo[3,4-d]imidazole]-2,6′(5′H)-dione]	1.89	72.4	–	–
COc1cc(N(C)C)ccc1-c1nc2c(n1C(C)C)[C@]1(C(=O)Nc3cc(Cl)ccc31)N(c1cc(Cl)ccc1C)C2=O [Example R-23, (R)-6-chloro-5′-(5-chloro-2-methylphenyl)-2′-(4-(dimethylamino)-2-methoxyphenyl)-3′-isopropyl-3′H-spiro[dihydroindole-3,4′-pyrrolo[3,4-d]imidazole]-2,6′(5′H)-dione]	175	354	–	–
COc1cc(OCC(F)F)ncc1-c1nc2c(n1C(C)C)[C@@]1(C(=O)Nc3cc(Cl)ccc31)N(c1cc(Cl)ccc1C)C2=O [Example S-153, (S)-6-chloro-5′-(5-chloro-2-methylphenyl)-2′-(6-(2,2-difluoroethoxy)-4-methoxypyridin-3-yl)-3′-isopropyl-3′H-spiro[dihydroindole-3,4′-pyrrolo[3,4-d]imidazole]-2,6′(5′H)-dione]	0.49	22	–	–
COc1cc(C(C)C)ncc1-c1nc2c(n1C(C)C)C1(C(=O)Nc3cc(Cl)ccc31)N(c1cc(Cl)cnc1C)C2=O (centres unmarked) [Example 166, 6-chloro-5′-(5-chloro-2-methylpyridin-3-yl)-3′-isopropyl-2′-(6-isopropyl-4-methoxypyridin-3-yl)-3′H-spiro[dihydroindole-3,4′-pyrrolo[3,4-d]imidazole]-2,6′(5′H)-dione]	–	–	better	better
COc1cc(C(F)(F)F)ccc1-c1nc2c(n1C(C)C)[C@@]1(C(=O)Nc3cc(Cl)ccc31)N(c1cccc(Cl)c1)C2=O [Example S-129, (S)-6-chloro-5′-(3-chlorophenyl)-3′-isopropyl-2′-(2-methoxy-4-(trifluoromethyl)phenyl)-3′H-spiro[dihydroindole-3,4′-pyrrolo[3,4-d]imidazole]-2,6′(5′H)-dione]	3.84	146	–	–
COc1cnccc1-c1nc2c(n1C(C)C)[C@]1(C(=O)Nc3cc(Cl)ccc31)N(c1cc(Cl)ccc1C)C2=O [Example R-10, (R)-6-chloro-5′-(5-chloro-2-methylphenyl)-3′-isopropyl-2′-(3-methoxypyridin-4-yl)-3′H-spiro[dihydroindole-3,4′-pyrrolo[3,4-d]imidazole]-2,6′(5′H)-dione]	117	2170	–	–
COc1nc(OC(C)C)ncc1-c1nc2c(n1C(C)C)[C@@]1(C(=O)Nc3cc(Cl)ccc31)N(c1cc(Cl)ccc1C)C2=O [Example S-126, (S)-6-chloro-5′-(5-chloro-2-methylphenyl)-2′-(2-isopropoxy-4-methoxypyrimidin-5-yl)-3′-isopropyl-3′H-spiro[dihydroindole-3,4′-pyrrolo[3,4-d]imidazole]-2,6′(5′H)-dione]	1.52	79.6	–	–

— patent US11339171B2, “MDM2 inhibitors” (Gan & Lee Pharmaceuticals, priority 2017, dated 2022)
